This test deals with JAK2 (Homo sapiens, UniProt O60674). The test can be described thus: JAK LanthaScreen Kinase Assay (TR-FRET), JAK2. It is filed as biochemical. Also noted: purchased Life Technologies #PV4844. To be noted: enzyme assay, 5 micromolar ATP, n=1; read-out: IC50 against JAK2. From the text: The JAK LanthaScreen™ Kinase Assay (Life Technologies, #PV4844) is used to determine compound IC50 values against the JAK1, JAK2, and JAK3 kinases. This kinase assay is a Time Resolved Fluorescence Resonance Energy Transfer (TR-FRET) assay format that uses long-lifetime terbium (Tb) labeled antibody as the donor species and Green Fluorescent Protein-Signal Transducers and Activators of Transcription (GFP-STAT1) as the acceptor species.
The TR-FRET ratio is used to monitor JAK1, JAK2, or JAK3 activity where an increase in phosphorylation of the GFP-STAT1 results in an increase in the TR-FRET ratio. Perform the kinase reaction using a 12.5 microliter reaction volume in shallow black 384-well Proxiplate (PerkinElmer, #6008260). […] Incubate at room temperature for 90 minutes, and read in an EnVision plate reader (PerkinElmer, #2104-0010) with 340 nm wavelength excitation filter and emission filters of 520 nm and 495 nm wavelengths. The ratio is derived from the emission wavelength for the GFP-STAT1 which is measured at 520 nanometer versus the emission at 495 nanometer for the Tb-anti-pSTAT1[pTyr701]. Derive the IC50 value for the compound using percent inhibition data, which is calculated from the reaction data relative to on-plate controls (active enzyme versus 2.0 micromolar control-inhibited enzyme). […]

Here are results for one molecule from patent US9062050B2, “Inhibitor of JAK1 and JAK2” (Eli Lilly and Company, priority 2012, dated 2015).

The term IC50 denotes the point on the concentration scale where inhibition reaches its midpoint.

Sequence of JAK2 (O60674 whole entry): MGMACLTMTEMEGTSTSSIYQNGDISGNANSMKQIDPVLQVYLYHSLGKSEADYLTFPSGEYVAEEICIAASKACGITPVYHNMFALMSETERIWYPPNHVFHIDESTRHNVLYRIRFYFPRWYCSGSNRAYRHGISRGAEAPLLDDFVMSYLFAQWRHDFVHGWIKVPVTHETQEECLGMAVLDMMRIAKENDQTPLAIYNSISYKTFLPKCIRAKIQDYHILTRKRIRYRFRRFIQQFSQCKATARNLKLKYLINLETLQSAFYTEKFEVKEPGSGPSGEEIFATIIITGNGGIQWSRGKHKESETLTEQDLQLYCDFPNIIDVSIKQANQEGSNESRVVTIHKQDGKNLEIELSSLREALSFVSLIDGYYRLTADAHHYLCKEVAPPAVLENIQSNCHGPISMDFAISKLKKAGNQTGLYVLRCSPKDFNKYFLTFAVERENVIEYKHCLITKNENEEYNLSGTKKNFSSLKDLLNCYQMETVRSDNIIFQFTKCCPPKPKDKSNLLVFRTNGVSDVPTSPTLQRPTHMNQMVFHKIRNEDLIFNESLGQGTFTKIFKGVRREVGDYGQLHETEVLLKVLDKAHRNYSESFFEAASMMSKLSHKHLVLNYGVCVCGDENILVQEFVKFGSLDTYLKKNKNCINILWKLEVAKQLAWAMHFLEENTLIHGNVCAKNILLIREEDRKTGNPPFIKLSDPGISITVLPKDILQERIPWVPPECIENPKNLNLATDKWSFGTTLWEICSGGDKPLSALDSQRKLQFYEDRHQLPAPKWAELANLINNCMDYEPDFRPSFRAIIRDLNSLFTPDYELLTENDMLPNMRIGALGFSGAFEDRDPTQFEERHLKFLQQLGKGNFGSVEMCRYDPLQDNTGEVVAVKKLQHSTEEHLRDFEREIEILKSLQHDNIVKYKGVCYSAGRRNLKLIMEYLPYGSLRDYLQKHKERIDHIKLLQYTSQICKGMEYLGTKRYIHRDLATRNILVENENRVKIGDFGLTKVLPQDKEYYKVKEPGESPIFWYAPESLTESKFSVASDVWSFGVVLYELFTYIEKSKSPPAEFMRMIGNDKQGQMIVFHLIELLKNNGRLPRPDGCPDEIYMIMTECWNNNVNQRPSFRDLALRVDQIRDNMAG

Turning to `Cc1cc(Nc2ccc3ncn([C@@H]4CCc5ccc(F)cc54)c3n2)[nH]n1.Cl.Cl` [Example 1, 3-[(1R)-6-fluoro-2,3-dihydro-1H-inden-1-yl]-N-(3-methyl-1H-pyrazol-5-yl)-3H-imidazo[4,5-b]pyridin-5-amine dihydrochloride], the IC50 turned out to be 1.7 nM.
